Patent US20180339963A1, “ANTICONVULSANT CARBAMATE DERIVATIVES” (Yissum Research Development Company of the Hebrew …, priority 2017, published 2018)
Read-outs that look alike come from different tables or passages of the source. Marks after values point to notes of the source that are not given here.

Columns and labels:
SWV mice = assay: Teratogenicity in the SWV mouse model; format: in vivo; details: for No. of fetuses with NTDs / No. of implants / No. of live fetuses / No. of resorptions / Fetal weight mean ± SD: day 8.5 of gestation; for Fetal weight mean ± SD: in g (unit assumed); for No. of live fetuses, figure in parentheses / No. of resorptions, figure in parentheses: share of implants; for No. of fetuses with NTDs, figure in parentheses: share of live fetuses
Description: The teratogenic properties of the newly designed compounds (1-10) were evaluated in the highly inbred SWV mice strain known for its high susceptibility to VPA-induced neural tube defects (NTDs). Two month old nulligravid females, were mated overnight with males and examined for the presence of vaginal plugs the following morning, and the onset of gestation was considered to be 10 p.m. of the previous night, the midpoint of the dark cycle. At day 8.5 of gestation, each dam received a single i.p. injection of the test compounds in an equimolar dose of 0.9 or 1.8 mmol/kg and the control dams were injected with vehicle (25% water solution of Cremophore EL, Fluka Biochemica Germany). The volume of injection was 10 μL/g of body weight. […] At gestation day […], the dams were euthanized by carbon dioxide asphyxiation followed by cervical dislocation. After the opening the uterus, the location of all viable fetuses and resorption sites were recorded, and the fetuses were examined for the presence of exencephaly or other gross congenital abnormalities. The teratogenicity data (implantations, resorptions and NTDs) were evaluated for significant differences between the control and treated groups by analyzing the contingency table with Fisher's exact test. Statistical analysis was conducted using GraphPad InStat (version 3.06; GraphPad Software, San Diego, Calif., USA), and the results of all tests were considered to be statistically significant when the p-value was less than 0.05

hCA IV = biological target: T1, hCA IV (Homo sapiens, UniProt P22748); assay: Stopped flow CO2 hydrase assay, hCA IV; format: biochemical; details: mean from 3 assays
T1 construct: made in house
Description: (§1) An Applied Photophysics stopped-flow instrument has been used for assaying the CA catalysed CO2 hydration activity. Phenol red (at a concentration of 0.2 mM) has been used as indicator, working at the absorbance maximum of 557 nm, with 20 mM Hepes (pH 7.5) as buffer, and 20 mM Na2SO4 (for maintaining constant the ionic strength), following the initial rates of the CA-catalyzed CO2 hydration reaction for a period of 10-100 s. The CO2 concentrations ranged from 1.7 to 17 mM for the determination of the kinetic parameters and inhibition constants. […] The uncatalyzed rates were determined in the same manner and subtracted from the total observed rates. Stock solutions of inhibitor (0.1 mM) were prepared in distilled-deionized water and dilutions up to 0.01 nM were done thereafter with the assay buffer. […] The inhibition constants were obtained by non-linear least-squares methods using PRISM 3 and the Cheng-Prusoff equation, as reported earlier and represent the mean from at least three different determinations. All CA isofoms were recombinant ones obtained in-house.

hCA II = biological target: T2, hCA II (Homo sapiens, UniProt P00918); assay: Stopped flow CO2 hydrase assay, hCA II; format: biochemical; details: mean from 3 assays, read-out: K1, hCA II
T2 construct: made in house
Description: as §1

[1] = test system: maximal electroshock seizure (MES); assay: Maximal electroshock seizure (MES) test in mice; details: Mus musculus, ip; for responders at 30 mg/kg / responders at 100 mg/kg / responders at 300 mg/kg: read-out: MES, number of mice protected/number of mice tested; for ED50: read-out: MES-ED50, mice, i.p.
[2] = test system: pentylenetetrazol-induced seizure (scMet); assay: Subcutaneous metrazol seizure test (scMet) in mice; details: Mus musculus, ip, read-out: scMet-ED50
hCA VII = biological target: T3, hCA VII (Homo sapiens, UniProt P43166); assay: Stopped flow CO2 hydrase assay, hCA VII; format: biochemical; details: mean from 3 assays, read-out: K1, hCA VII
T3 construct: made in house
Description: as §1

hCA I = biological target: T4, hCA I (Homo sapiens, UniProt P00915); assay: Stopped flow CO2 hydrase assay, hCA I; format: biochemical; details: mean from 3 assays, read-out: K1, hCAI
T4 construct: made in house
Description: as §1

[3] = test system: maximal electroshock seizure (MES); assay: Maximal electroshock seizure (MES) test in rats; details: for ED50: Rattus norvegicus; for MES-ED50: rats, p.o.
in vivo [4] = details: male, CF no. 1 albino, mouse, ip
mice = assay: Neurotoxicity (minimal motor impairment, rotarod) in mice; details: mice i.p.
[5] = test system: pentylenetetrazol-induced seizure (scMet); assay: Subcutaneous metrazol seizure test (scMet) in rats; details: for ED50: Rattus norvegicus, po, read-out: scMet ED50; for scMet ED50: rats, p.o.
6 Hz psychomotor seizure = 6 Hz psychomotor seizure test in mice; details: Mus musculus, ip; for responders at 30 mg/kg / responders at 100 mg/kg / responders at 300 mg/kg: read-out: 6 Hz, number of mice protected/number of mice tested
in vivo [6] = details: Sprague-Dawley, rat
corneal kindled mouse = assay: Corneal kindled mouse (CKM) model; format: in vivo; details: ip, mice
[7] = po, read-out: MES-ED50, rats, p.o.
[8] = read-out: 6 Hz-ED50, mice, i.p., 32 mA

T3 sequence (P43166 whole entry): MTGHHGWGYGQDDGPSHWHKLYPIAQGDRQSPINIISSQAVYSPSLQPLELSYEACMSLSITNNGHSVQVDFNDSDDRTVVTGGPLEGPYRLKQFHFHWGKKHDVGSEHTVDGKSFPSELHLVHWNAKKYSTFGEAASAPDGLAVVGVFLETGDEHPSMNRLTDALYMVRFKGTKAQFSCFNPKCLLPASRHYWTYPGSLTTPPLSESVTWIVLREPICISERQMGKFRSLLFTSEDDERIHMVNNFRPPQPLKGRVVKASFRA
T1 sequence (P22748 19-284): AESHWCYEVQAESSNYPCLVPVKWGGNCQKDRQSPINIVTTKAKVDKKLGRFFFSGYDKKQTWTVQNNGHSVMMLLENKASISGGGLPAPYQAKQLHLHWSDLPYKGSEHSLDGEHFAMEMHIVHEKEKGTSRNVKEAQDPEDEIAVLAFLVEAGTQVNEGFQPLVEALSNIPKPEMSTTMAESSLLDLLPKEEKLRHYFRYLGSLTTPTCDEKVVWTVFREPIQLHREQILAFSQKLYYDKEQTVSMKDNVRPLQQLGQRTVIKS
T4 sequence (P00915 whole entry): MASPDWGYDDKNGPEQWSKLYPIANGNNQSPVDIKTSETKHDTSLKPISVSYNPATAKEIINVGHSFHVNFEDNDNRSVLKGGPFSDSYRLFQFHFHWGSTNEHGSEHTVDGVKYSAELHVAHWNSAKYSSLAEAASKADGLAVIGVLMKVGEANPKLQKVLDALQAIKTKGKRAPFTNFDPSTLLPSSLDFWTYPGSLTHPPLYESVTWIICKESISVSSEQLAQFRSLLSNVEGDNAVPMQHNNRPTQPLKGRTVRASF

## CCC(C)C(C)OC(=O)Nc1ccc(S(N)(=O)=O)cc1 (stereo not shown) [Compound 9, 3-methylpentan-2-yl (4-sulfamoylphenyl)carbamate]
SWV mice
  induction of neural tube defects relative to anticonvulsant effective dose (in words): induced neural tube defects only at doses markedly exceeding their effective dose
SWV mice; single i.p. 0.9 mmol/kg
  No. of fetuses with NTDs: 3
  No. of implants: 126
  No. of live fetuses: 109
  No. of resorptions: 17
  Fetal weight mean ± SD: 0.90 ± 0.07
  No. of live fetuses, figure in parentheses: 86.5%
  No. of resorptions, figure in parentheses: 13.5%
  No. of fetuses with NTDs, figure in parentheses: (2.8)
SWV mice; single i.p. 1.8 mmol/kg
  No. of fetuses with NTDs: 9
  No. of implants: 107
  No. of live fetuses: 49
  No. of resorptions: 58
  Fetal weight mean ± SD: 0.89 ± 0.08
  No. of live fetuses, figure in parentheses: 45.8%
  No. of resorptions, figure in parentheses: 54.2%
  No. of fetuses with NTDs, figure in parentheses: (18.4)*
hCA IV
  K1, hCA IV: medium potency inhibitors
hCA IV; read-out: K1, hCA IV
  Ki: 183 nM
hCA II
  Ki: 5.4 nM
[1]; 0.5 h
  responders at 30 mg/kg: 75%
  responders at 100 mg/kg: 75%
  responders at 300 mg/kg: 100%
[1]; 2 h
  responders at 30 mg/kg: 0%
  responders at 100 mg/kg: 100%
  responders at 300 mg/kg: 100%
[1]
  ED50: 31 mg/kg
[2]
  ED50: 369 mg/kg
other
  melting point: 179 to 180 °C
hCA VII
  Ki: 35.5 nM
hCA I
  Ki: 72.9 nM
[3]; [7]
  ED50: 23 mg/kg
[3]
  MES-ED50: 28 mg/kg
In vivo [4]
  TD50: > 600 mg/kg
mice; 30 mg/kg, 0.5 h
  Tox (motor impairment or sedation), number of animals affected/number of animals tested: 0/8
mice; 30 mg/kg, 2.0 h
  Tox (motor impairment or sedation), number of animals affected/number of animals tested: 0/8
mice; 100 mg/kg, 0.5 h
  Tox (motor impairment or sedation), number of animals affected/number of animals tested: 0/8
mice; 100 mg/kg, 2.0 h
  Tox (motor impairment or sedation), number of animals affected/number of animals tested: 0/8
mice; 300 mg/kg, 0.5 h
  Tox (motor impairment or sedation), number of animals affected/number of animals tested: 0/8
mice; 300 mg/kg, 2.0 h
  Tox (motor impairment or sedation), number of animals affected/number of animals tested: 0/8
[5]
  ED50: > 250 mg/kg
  scMet ED50: inactive
6 Hz psychomotor seizure; 0.5 h
  responders at 30 mg/kg: 50%
  responders at 100 mg/kg: 50%
  responders at 300 mg/kg: 100%
6 Hz psychomotor seizure; 2 h
  responders at 30 mg/kg: 0%
  responders at 100 mg/kg: 0%
  responders at 300 mg/kg: 25%
6 Hz psychomotor seizure; [8]
  ED50: 53 mg/kg
In vivo [6]; male, po
  TD50: > 500 mg/kg

## CCC(C)CCOC(=O)Nc1ccc(S(N)(=O)=O)cc1 (stereo not shown) [Compound 10, 3-methylpentyl(4-sulfamoylphenyl)carbamate]
SWV mice
  induction of neural tube defects relative to anticonvulsant effective dose (in words): induced neural tube defects only at doses markedly exceeding their effective dose
SWV mice; single i.p. 0.9 mmol/kg
  No. of fetuses with NTDs: 9
  No. of implants: 145
  No. of live fetuses: 116
  No. of resorptions: 29
  Fetal weight mean ± SD: 0.88 ± 0.03
  No. of live fetuses, figure in parentheses: 80%
  No. of resorptions, figure in parentheses: 20%
  No. of fetuses with NTDs, figure in parentheses: (7.8)*
SWV mice; single i.p. 1.8 mmol/kg
  No. of fetuses with NTDs: 17
  No. of implants: 108
  No. of live fetuses: 56
  No. of resorptions: 52
  Fetal weight mean ± SD: 0.87 ± 0.08
  No. of live fetuses, figure in parentheses: 51.9%
  No. of resorptions, figure in parentheses: 48.2%
  No. of fetuses with NTDs, figure in parentheses: (30.4)*
Corneal kindled mouse
  ED50: 59 mg/kg
[1]; 0.5 h
  responders at 30 mg/kg: 75%
  responders at 100 mg/kg: 100%
  responders at 300 mg/kg: 75%
[1]; 2 h
  responders at 30 mg/kg: 25%
  responders at 100 mg/kg: 100%
  responders at 300 mg/kg: 100%
[1]
  ED50: 14 mg/kg
[2]
  ED50: 70 mg/kg
other
  melting point: 168 to 169 °C
hCA VII
  Ki: 351 nM
[3]; ip, read-out: MES-ED50, rats, i.p.
  ED50: 13 mg/kg
[3]; [7]
  ED50: 28 mg/kg
[3]
  MES-ED50: 23 mg/kg
In vivo [4]
  TD50: 698 mg/kg
mice; 30 mg/kg, 0.5 h
  Tox (motor impairment or sedation), number of animals affected/number of animals tested: 1/8
mice; 30 mg/kg, 2.0 h
  Tox (motor impairment or sedation), number of animals affected/number of animals tested: 0/8
mice; 100 mg/kg, 0.5 h
  Tox (motor impairment or sedation), number of animals affected/number of animals tested: 0/8
mice; 100 mg/kg, 2.0 h
  Tox (motor impairment or sedation), number of animals affected/number of animals tested: 0/8
mice; 300 mg/kg, 0.5 h
  Tox (motor impairment or sedation), number of animals affected/number of animals tested: 1/8
mice; 300 mg/kg, 2.0 h
  Tox (motor impairment or sedation), number of animals affected/number of animals tested: 0/8
[5]
  ED50: > 250 mg/kg
  scMet ED50: inactive
6 Hz psychomotor seizure; 0.5 h
  responders at 30 mg/kg: 25%
  responders at 100 mg/kg: 75%
  responders at 300 mg/kg: 100%
6 Hz psychomotor seizure; 2 h
  responders at 30 mg/kg: 0%
  responders at 100 mg/kg: 50%
  responders at 300 mg/kg: 100%
6 Hz psychomotor seizure; read-out: 6 Hz (44 mA)-ED50, mice, i.p., 44 mA
  ED50: 88 mg/kg
6 Hz psychomotor seizure; [8]
  ED50: 80 mg/kg
In vivo [6]; ip
  TD50: > 250 mg/kg
In vivo [6]; male, po
  TD50: > 500 mg/kg
